Key:
Test in all cases: cell viability (% survival relative to DMSO control); higher = less cytotoxic
Conditions in all cases: 72 h
HL-60 = tested on: HL-60
Procedure: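 8x8 drug-combination matrices (0-5000 nM; rosiglitazone and lestaurtinib 0-1000 nM) were run in HL-60 cells for 72 h with a CellTiter-Glo read-out. Survival is normalised to DMSO and 10 µM bortezomib and clipped at 100%. Bliss synergy was analysed in SynergyFinder.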

[1] = tested on: myeloid leukemia patient primary cells Pat.7
How it was run: (§1)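 Thawed mononuclear cells from AML or CML patients were purified on Ficoll and cultured for 72 h in RPMI 1640 with 10% FBS, at 10,000 cells/well, on 384-well plates carrying 70 pre-printed compounds at 1–10,000 nM in five tenfold steps, in duplicate. Viability came from CellTiter-Glo, normalised against DMSO and against 10 μM proteasome inhibitor. Any area under the curve given was derived from log-logistic curve fits in the drc and PharmacoGx R packages, and these fits had four parameters.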

[2] = tested on: myeloid leukemia patient primary cells Pat.9
How it was run: as §1

[3] = tested on: myeloid leukemia patient primary cells Pat.5
How it was run: as §1

[4] = tested on: myeloid leukemia patient primary cells Pat.13
How it was run: as §1

[5] = tested on: myeloid leukemia patient primary cells Pat.4
How it was run: as §1

[6] = tested on: myeloid leukemia patient primary cells Pat.3
How it was run: as §1

[7] = tested on: myeloid leukemia patient primary cells Pat.14
How it was run: as §1

[8] = tested on: myeloid leukemia patient primary cells Pat.2
How it was run: as §1

[9] = tested on: myeloid leukemia patient primary cells Pat.1
How it was run: as §1

[10] = tested on: myeloid leukemia patient primary cells Pat.8
How it was run: as §1

O=C(C1CC1)N1CC[C@@H](C=C2NNC(=O)N2c2ccc(-c3ccc4occc4c3)cc2)C1 + O=C(c1c2ccccc2cc2ccccc12)N1CCC(N2CCC[C@@H](C(=O)N3CCOCC3)C2)CC1 [CP-640186]
cell viability [%], HL-60
Conditions | drug1 concentration 5 nM | drug1 concentration 10 nM | drug1 concentration 50 nM | drug1 concentration 100 nM | drug1 concentration 500 nM | drug1 concentration 1000 nM | drug1 concentration 5000 nM
drug2 concentration 5 nM | 79.6 | > 100 | 88.2 | 88.2 | 60 | 71.7 | 88.2
drug2 concentration 10 nM | 96.6 | 97.7 | 86.2 | 86.2 | 91.2 | 72 | 64.5
drug2 concentration 50 nM | 90 | 95.2 | 82.5 | 88 | 81.8 | 68.2 | 74.1
drug2 concentration 100 nM | 88 | 90 | 78.2 | 90.5 | 74.4 | 63.6 | 72.3
drug2 concentration 500 nM | 86.2 | 88.5 | 75.1 | 91.1 | 70.5 | 57.8 | 71.1
drug2 concentration 1000 nM | 84 | 84.2 | 70.3 | 75.1 | 61.5 | 56.3 | 79.2
drug2 concentration 5000 nM | 77.2 | 79.4 | 72 | 74.6 | 52.4 | 53.7 | 66.5

C[C@H](NC(=O)c1sccc1OCc1ccc(Cl)cc1)c1ccccc1
cell viability [%]
Conditions | [1] | [2] | [3] | [4] | [5] | [6] | [7] | [8] | [9] | [10]
1 nM | 93.1 | 84.8 | 88.1 | 92.9 | 94.6 | 91.3 | 88.5 | > 100 | 94.5 | 72.9
10 nM | 85.3 | 59.2 | 68.7 | 89 | 93.6 | 83.9 | 88 | 95.8 | 95.9 | 85.9
100 nM | 90.3 | 79 | 71.7 | 92.3 | 94.1 | 96.3 | 99.3 | > 100 | 91 | 87.7
1000 nM | 40.2 | 59.2 | 19.4 | 91.7 | 83.3 | 96.2 | 99.3 | 97.8 | > 100 | > 100
10000 nM | < 0 | 1.24 | 4.74 | 43.4 | 39.9 | 1.02 | 1.72 | 64 | 54 | 61

O=C1c2cc([N+](=O)[O-])ccc2-n2c1nc1ccccc1c2=O [GNF-Pf-3777]
cell viability [%]
Conditions | [1] | [2] | [3] | [4] | [5] | [6] | [7] | [8] | [9] | [10]
1 nM | 95.9 | 82.9 | > 100 | 94.2 | 97.7 | 93.1 | 96.8 | 98.3 | > 100 | 97.5
10 nM | 70.7 | 68.9 | 63 | 96.4 | 97 | 86.9 | 95 | 93.2 | 94.8 | 94.9
100 nM | > 100 | 60.9 | 73 | 96.6 | 96 | 72.7 | 96.8 | 95.5 | 86.5 | 88.4
1000 nM | 97.1 | 63.4 | 36.1 | 80.8 | 79.5 | 46.2 | 85.7 | 93.7 | 77.2 | 84
10000 nM | 21.8 | 25.8 | 3.37 | 35.8 | 19 | 20 | 54.2 | 62.3 | 65.1 | 64.9

CC[C@@]1(O)C(=O)OCc2c1cc1n(c2=O)Cc2cc3c(CN(C)C)c(O)ccc3nc2-1 [Topotecan]
cell viability [%]
Conditions | [1] | [2] | [3] | [4] | [5] | [6] | [7] | [8] | [9] | [10]
1 nM | 80.1 | 78.4 | 91.7 | 85.7 | 75.3 | 90.9 | 96 | 90.7 | 83.6 | 76.3
10 nM | 94.3 | 58.3 | 66.1 | 91.7 | 84.2 | 89.8 | 97 | 92.9 | 80.9 | 69.7
100 nM | 81.4 | 31.8 | 53.1 | 92.3 | > 100 | 20 | 72.4 | 95.9 | 98.6 | 93.5
1000 nM | 34.7 | 58.8 | 19.8 | 97.4 | 82.5 | 18.6 | 58.2 | 72 | 96 | 87.2
10000 nM | < 0 | 1.24 | 0.265 | 21.9 | 4.14 | 2.85 | 6.19 | 39.5 | 28.6 | 27.3

O=C1O/C(=C/Br)CCC1c1cccc2ccccc12 (stereo not drawn) [Bromoenol Lactone]
cell viability [%]
Conditions | [1] | [2] | [3] | [4] | [5] | [6] | [7] | [8] | [9] | [10]
1 nM | 57.6 | 66 | 44.7 | 80.2 | 64.7 | 89.5 | 78.2 | 96.5 | 68.2 | 75.9
10 nM | 75.8 | 39.3 | 34.4 | 89.3 | 93.3 | 82.1 | 83.5 | > 100 | 90.4 | 91.1
100 nM | 76.4 | 46.4 | 7.92 | 89.3 | 85.8 | 62.3 | 73.9 | 97.2 | 79.3 | 70
1000 nM | 30 | 5.6 | 1.18 | 82.2 | 53.4 | 1.83 | 21.8 | 93.6 | 69.3 | 81.3
10000 nM | < 0 | 0.492 | 2.24 | 28.1 | 3.26 | < 0 | < 0 | 29.4 | 14.6 | 30

COC(=O)[C@]12CCC(C)(C)C[C@H]1[C@H]1C(=O)C=C3[C@@]4(C)C=C(C#N)C(=O)C(C)(C)[C@@H]4CC[C@@]3(C)[C@]1(C)CC2 [Bardoxolone methyl]
cell viability [%]
Conditions | [1] | [2] | [3] | [4] | [5] | [6] | [7] | [8] | [9] | [10]
1 nM | 97.6 | 65.1 | 65.9 | 86.5 | 84.5 | 83.7 | 73.4 | > 100 | 85.8 | 67.7
10 nM | 67.2 | 25.4 | 47.9 | 80.8 | 96.4 | 74.8 | 72.5 | 93.5 | 68.1 | 97.5
100 nM | 2.85 | 0.492 | 5.56 | 57.3 | 33.3 | 10.9 | 47 | 78.5 | 61.9 | 78.5
1000 nM | < 0 | 0.773 | 6.86 | 4.17 | 70 | 0.308 | 2.03 | 34.7 | 61.3 | 9.52
10000 nM | < 0 | 3.59 | 7.88 | 31.2 | 1.48 | < 0 | 25.8 | 77.6 | 2.44 | 61.5

C=C(C)[C@H]1Cc2c(ccc3c2O[C@@H]2COc4cc(OC)c(OC)cc4[C@@H]2C3=O)O1 [Rotenone]
cell viability [%]
Conditions | [1] | [2] | [3] | [4] | [5] | [6] | [7] | [8] | [9] | [10]
1 nM | 5.63 | 1.24 | 5.46 | 62.5 | 79.9 | 48.6 | 30.2 | 62.7 | 75.9 | 70.8
10 nM | 79.4 | 50.1 | 0.265 | 80.5 | 89.3 | 57.4 | 71 | 86.5 | 81.3 | 79.3
100 nM | 54.6 | 10.8 | 0.912 | 57.6 | 88.5 | 35.7 | 50 | 68.7 | 72.8 | 55.6
1000 nM | 36.3 | 1.6 | 0.265 | 17.2 | 62.3 | 25.3 | 30.8 | 61.5 | 68.4 | 36.8
10000 nM | 1.21 | < 0 | 1.18 | 11.9 | 11.7 | 18 | 10.7 | 57.5 | 34.8 | 3.96

N#CC(C#N)=NNc1ccc(OC(F)(F)F)cc1 [FCCP]
cell viability [%]
Conditions | [1] | [2] | [3] | [4] | [5] | [6] | [7] | [8] | [9] | [10]
1 nM | 82.8 | 54 | 19.1 | 85 | 89 | 88.5 | 67.3 | 92.5 | 90.1 | 71.4
10 nM | 82.5 | 63.1 | 52.4 | > 100 | 90.4 | 82.9 | 93.7 | 90.8 | 89.9 | 91.6
100 nM | 93.6 | 82.9 | 14.8 | 89.8 | 97.9 | 94.9 | 94.6 | > 100 | > 100 | 82.1
1000 nM | < 0 | 3.45 | < 0 | 59.4 | 53.6 | 3.06 | 17.4 | 95.3 | 59.9 | 89.1
10000 nM | < 0 | 0.492 | 3.45 | 4.66 | 4.18 | < 0 | 0.937 | 30 | 5.44 | 3.73

O=C(C1CC1)N1CC[C@@H](C=C2NNC(=O)N2c2ccc(-c3ccc4occc4c3)cc2)C1 + C[C@H](NC(=O)c1sccc1OCc1ccc(Cl)cc1)c1ccccc1 [as1949490]
cell viability [%], HL-60
Conditions | drug1 concentration 5 nM | drug1 concentration 10 nM | drug1 concentration 50 nM | drug1 concentration 100 nM | drug1 concentration 500 nM | drug1 concentration 1000 nM | drug1 concentration 5000 nM
drug2 concentration 5 nM | 81.9 | 89 | 82.7 | 68 | 60.7 | 60.8 | 51.6
drug2 concentration 10 nM | > 100 | 86.7 | 79.5 | 65 | 58.1 | 58.4 | 48.5
drug2 concentration 50 nM | 99.3 | 83.4 | 74.8 | 57.3 | 59.3 | 51.9 | 42.1
drug2 concentration 100 nM | 95.7 | 83.4 | 68.3 | 53.2 | 56.1 | 48.8 | 37.7
drug2 concentration 500 nM | 88.6 | 78.1 | 63.5 | 56 | 46.3 | 49.6 | 38.5
drug2 concentration 1000 nM | 86.2 | 76.1 | 60.1 | 46.8 | 43.6 | 44.1 | 35.8
drug2 concentration 5000 nM | 80.8 | 72.6 | 57.6 | 43.4 | 44.8 | 40.9 | 33.3

Reference: the supplement of paper PMC8671470
